# Assay results: publication PMC4447944 (The Journal of Biological Chemistry, 2015)
# How the values were obtained:
# [1] = system: SMYD2-induced p53 methylation; assay: Cell-based ELISA for p53 Lys370me1, U2OS cells transfected with FLAG-SMYD2; conditions: Homo sapiens, 15 h
# Protocol: Cell lysates were subject to 10% SDS-PAGE and transferred to a PVDF membrane. Each membrane was blocked in Odyssey Blocking Buffer (LI-COR Biosciences) and incubated with monoclonal anti-p53 (D01) antibody (Abcam, ab1101) or rabbit anti-p53 Lys^370me1 antibody (a kind gift from Dr. Shelley Berger) followed by detection with IRDye®680RD goat anti-mouse IgG (LI-COR Biosciences) and IRDye800CW goat anti-rabbit IgG (LI-COR Biosciences) on the Odyssey Imager (LI-COR Biosciences). […] 4–8 h later, cells were treated with 0–25 μM compound for 15 h. […] 24 h later, cells were lysed with 200 μl of MSD Tris Lysis Buffer^TM (Meso Scale Discovery). A MULTI-ARRAY^TM 96-well plate (Meso Scale Discovery, catalog number L15XA-3) was precoated with 2 μg/ml custom-made methyl-p53 antibody (Lampire) in PBS overnight at 4 °C. 150 μl/well MSD Blocking Solution A^TM (final concentration of 3%) was added followed by shaking at room temperature for 1 h. The plate was washed three times with 1× MSD Tris Wash Buffer^TM (Meso Scale Discovery). 0.5 μg of cell lysate in 25 μl/well MSD Tris Lysis Buffer was added, followed by shaking overnight at 4 °C. […] Following a final wash three times with 1× MSD Tris Wash Buffer, 150 μl/well 1× MSD Read Buffer^TM (Meso Scale Discovery) was added, and plates were read on an MSD SECTOR^TM Imager 6000 instrument (Meso Scale Discovery).
# hCDKL2 = biological target: T1, hCDKL2 (Homo sapiens, UniProt Q92772); assay: KINOMEscan; type: binding
# T1 construct: purchased DiscoverX
# hCSK = biological target: T2, hCSK (Homo sapiens, UniProt P41240); assay: KINOMEscan; type: binding
# T2 construct: purchased DiscoverX (KINOMEscan platform)
# T2 sequence (P41240 whole entry): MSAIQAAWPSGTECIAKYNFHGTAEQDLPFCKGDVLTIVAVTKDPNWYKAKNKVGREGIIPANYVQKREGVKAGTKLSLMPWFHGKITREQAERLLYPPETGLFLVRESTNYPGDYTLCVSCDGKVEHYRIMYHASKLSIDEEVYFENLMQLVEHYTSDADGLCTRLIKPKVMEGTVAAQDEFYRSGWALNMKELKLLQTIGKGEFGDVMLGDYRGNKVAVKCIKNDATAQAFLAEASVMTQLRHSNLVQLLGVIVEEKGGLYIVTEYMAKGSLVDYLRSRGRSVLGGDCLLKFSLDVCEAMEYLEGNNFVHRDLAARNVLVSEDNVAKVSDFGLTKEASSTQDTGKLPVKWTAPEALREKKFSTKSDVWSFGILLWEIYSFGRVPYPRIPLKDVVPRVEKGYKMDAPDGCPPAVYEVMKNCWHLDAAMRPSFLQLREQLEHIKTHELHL
# hDMPK = biological target: T3, hDMPK (Homo sapiens, UniProt Q09013); assay: KINOMEscan; type: binding
# T3 construct: purchased DiscoverX (KINOMEscan platform)
# [2] = biological target: T4, hEGFR(L747-E749del, A750P) (Homo sapiens, UniProt P00533, A750P/DEL747-749); assay: KINOMEscan; type: binding
# T4 construct: purchased DiscoverX
# T4 sequence (P00533 with tags, fused parts or gaps DEL747-749/A750P): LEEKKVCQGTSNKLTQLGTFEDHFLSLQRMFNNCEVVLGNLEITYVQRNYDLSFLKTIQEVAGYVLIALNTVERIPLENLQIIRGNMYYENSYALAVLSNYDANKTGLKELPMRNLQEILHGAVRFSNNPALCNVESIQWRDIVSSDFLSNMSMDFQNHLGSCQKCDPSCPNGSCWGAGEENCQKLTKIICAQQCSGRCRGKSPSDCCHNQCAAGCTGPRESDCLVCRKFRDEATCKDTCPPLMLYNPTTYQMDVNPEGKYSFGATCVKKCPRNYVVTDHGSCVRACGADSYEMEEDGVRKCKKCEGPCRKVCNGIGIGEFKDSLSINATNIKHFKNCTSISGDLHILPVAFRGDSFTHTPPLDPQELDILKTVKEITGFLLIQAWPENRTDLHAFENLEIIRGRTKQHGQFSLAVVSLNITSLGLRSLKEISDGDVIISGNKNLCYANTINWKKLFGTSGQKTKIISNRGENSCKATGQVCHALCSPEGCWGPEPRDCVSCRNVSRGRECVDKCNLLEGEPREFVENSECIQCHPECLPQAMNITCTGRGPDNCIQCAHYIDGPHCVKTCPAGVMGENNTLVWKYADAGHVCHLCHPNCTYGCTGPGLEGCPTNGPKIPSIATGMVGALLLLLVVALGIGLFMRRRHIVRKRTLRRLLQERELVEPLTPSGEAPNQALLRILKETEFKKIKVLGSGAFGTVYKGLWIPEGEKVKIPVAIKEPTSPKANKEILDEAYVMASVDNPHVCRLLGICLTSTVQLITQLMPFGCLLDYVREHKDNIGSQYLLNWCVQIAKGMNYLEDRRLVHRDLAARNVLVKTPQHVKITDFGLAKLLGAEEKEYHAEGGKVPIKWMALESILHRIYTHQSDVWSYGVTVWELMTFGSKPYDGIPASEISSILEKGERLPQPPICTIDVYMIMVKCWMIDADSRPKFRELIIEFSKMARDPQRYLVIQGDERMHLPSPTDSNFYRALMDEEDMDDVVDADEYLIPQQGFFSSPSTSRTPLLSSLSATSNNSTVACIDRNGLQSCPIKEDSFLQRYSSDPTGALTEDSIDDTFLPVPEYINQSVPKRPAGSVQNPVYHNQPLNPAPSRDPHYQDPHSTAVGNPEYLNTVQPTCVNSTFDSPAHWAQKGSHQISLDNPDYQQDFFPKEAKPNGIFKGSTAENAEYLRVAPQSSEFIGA
# hEGFR(L747-T751del,Sins) = hEGFR(L747-T751del,Sins) (Homo sapiens, UniProt P00533, DEL747-751/INS746S); assay: KINOMEscan; type: binding
# Sequence of hEGFR(L747-T751del,Sins) (P00533 712-979, stated change not applied): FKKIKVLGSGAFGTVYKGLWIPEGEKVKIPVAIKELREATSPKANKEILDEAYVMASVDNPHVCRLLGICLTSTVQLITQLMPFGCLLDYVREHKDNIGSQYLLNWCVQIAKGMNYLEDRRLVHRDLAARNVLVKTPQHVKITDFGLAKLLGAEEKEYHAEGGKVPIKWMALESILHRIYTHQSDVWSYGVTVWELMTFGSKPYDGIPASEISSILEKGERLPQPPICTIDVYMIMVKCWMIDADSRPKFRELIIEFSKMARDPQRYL
# hEGFR(L858R,T790M) = biological target: T5, hEGFR(L858R,T790M) (Homo sapiens, UniProt P00533, L858R/T790M); assay: KINOMEscan; type: binding
# T5 construct: purchased DiscoverX
# hFGFR3(G697C) = biological target: T6, hFGFR3(G697C) (Homo sapiens, UniProt P22607, G697C); assay: KINOMEscan; type: binding
# T6 construct: purchased DiscoverX
# hGCN2(Kin.Dom.2,S808G) = biological target: T7, hGCN2(Kin.Dom.2,S808G) (Homo sapiens, UniProt Q9P2K8, S808G); assay: KINOMEscan; type: binding
# T7 construct: hGCN2(Kin.Dom.2,S808G); purchased DiscoverX
# hHPK1 = biological target: T8, hHPK1 (Homo sapiens, UniProt Q92918); assay: KINOMEscan; type: binding
# T8 construct: purchased DiscoverX (KINOMEscan panel)
# hKIT(V559D,V654A) = biological target: T9, hKIT(V559D,V654A) (Homo sapiens, UniProt P10721, V559D/V654A); assay: KINOMEscan; type: binding
# T9 construct: purchased DiscoverX (KINOMEscan platform)
# hLZK = biological target: T10, hLZK (Homo sapiens, UniProt O43283); assay: KINOMEscan; type: binding
# T10 construct: purchased DiscoverX (KINOMEscan platform)
# hMAP3K1 = biological target: T11, hMAP3K1 (Homo sapiens, UniProt Q13233); assay: KINOMEscan; type: binding
# T11 construct: purchased DiscoverX (KINOMEscan platform)
# T11 sequence (Q13233 whole entry): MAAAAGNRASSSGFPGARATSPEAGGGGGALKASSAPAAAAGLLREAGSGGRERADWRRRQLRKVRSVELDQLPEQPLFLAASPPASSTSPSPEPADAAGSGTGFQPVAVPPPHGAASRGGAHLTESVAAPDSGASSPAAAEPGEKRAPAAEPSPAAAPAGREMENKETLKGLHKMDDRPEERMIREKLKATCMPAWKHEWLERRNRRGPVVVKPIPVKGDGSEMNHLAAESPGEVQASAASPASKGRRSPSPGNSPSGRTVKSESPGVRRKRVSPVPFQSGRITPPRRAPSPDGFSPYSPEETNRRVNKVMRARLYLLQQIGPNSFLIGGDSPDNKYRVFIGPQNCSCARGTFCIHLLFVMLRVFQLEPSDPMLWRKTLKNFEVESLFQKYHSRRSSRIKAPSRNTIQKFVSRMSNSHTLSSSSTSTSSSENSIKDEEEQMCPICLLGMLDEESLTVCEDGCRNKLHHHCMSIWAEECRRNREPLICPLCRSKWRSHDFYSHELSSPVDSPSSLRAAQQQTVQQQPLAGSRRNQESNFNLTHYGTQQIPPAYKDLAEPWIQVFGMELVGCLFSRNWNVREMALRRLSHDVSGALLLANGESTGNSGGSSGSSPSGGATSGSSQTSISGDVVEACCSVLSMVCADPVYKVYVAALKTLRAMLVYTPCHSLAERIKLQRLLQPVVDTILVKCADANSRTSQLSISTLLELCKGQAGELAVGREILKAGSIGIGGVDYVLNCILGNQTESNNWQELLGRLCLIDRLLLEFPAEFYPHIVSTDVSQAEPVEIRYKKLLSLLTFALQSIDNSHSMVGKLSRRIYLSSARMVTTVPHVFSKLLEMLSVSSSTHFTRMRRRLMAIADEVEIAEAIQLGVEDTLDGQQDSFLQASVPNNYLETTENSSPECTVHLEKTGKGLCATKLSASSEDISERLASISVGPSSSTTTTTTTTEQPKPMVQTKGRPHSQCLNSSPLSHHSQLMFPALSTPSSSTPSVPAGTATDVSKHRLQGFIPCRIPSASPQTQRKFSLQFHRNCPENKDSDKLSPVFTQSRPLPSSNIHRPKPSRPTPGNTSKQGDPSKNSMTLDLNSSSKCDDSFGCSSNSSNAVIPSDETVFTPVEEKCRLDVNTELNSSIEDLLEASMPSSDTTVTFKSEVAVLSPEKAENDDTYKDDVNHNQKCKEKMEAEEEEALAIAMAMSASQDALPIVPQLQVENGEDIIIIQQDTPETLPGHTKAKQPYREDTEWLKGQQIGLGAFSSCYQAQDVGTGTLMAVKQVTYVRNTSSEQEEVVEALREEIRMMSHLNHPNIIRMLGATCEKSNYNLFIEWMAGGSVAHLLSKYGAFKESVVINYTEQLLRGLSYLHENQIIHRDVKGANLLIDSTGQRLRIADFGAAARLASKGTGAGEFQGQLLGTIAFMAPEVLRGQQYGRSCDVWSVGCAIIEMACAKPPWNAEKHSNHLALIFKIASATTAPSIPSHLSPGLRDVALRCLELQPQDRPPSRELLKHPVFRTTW
# hMARK2 = biological target: T12, hMARK2 (Homo sapiens, UniProt Q7KZI7); assay: KINOMEscan; type: binding
# T12 construct: purchased DiscoverX
# hPYK2 = biological target: T13, hPYK2 (Homo sapiens, UniProt Q14289); assay: KINOMEscan; type: binding
# T13 construct: purchased DiscoverX
# T13 sequence (Q14289 whole entry): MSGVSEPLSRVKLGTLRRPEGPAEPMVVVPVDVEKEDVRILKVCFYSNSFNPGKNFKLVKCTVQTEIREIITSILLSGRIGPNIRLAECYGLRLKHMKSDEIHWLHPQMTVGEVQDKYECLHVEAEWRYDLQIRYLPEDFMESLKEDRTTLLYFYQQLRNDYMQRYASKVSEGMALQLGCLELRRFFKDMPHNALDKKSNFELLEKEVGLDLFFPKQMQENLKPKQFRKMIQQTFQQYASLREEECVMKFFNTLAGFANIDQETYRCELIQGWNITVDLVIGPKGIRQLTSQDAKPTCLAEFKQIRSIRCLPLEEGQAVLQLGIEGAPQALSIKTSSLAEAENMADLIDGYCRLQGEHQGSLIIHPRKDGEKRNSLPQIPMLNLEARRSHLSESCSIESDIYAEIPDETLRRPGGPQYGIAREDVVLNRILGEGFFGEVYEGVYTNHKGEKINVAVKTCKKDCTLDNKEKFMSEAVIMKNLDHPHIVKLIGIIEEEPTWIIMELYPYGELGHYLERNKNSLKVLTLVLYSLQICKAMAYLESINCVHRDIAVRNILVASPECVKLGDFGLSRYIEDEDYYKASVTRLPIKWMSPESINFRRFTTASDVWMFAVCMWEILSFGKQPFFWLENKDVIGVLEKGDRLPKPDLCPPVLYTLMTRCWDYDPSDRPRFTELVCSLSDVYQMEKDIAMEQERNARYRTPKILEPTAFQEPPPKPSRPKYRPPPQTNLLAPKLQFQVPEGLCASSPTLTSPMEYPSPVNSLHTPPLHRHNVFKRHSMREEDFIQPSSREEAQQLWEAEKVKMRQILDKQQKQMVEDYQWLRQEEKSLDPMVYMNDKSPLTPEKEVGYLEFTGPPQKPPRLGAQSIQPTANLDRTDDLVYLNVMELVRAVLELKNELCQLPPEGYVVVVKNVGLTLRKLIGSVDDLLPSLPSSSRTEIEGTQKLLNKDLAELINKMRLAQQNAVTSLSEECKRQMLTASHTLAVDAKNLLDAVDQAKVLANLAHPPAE
# hRIPK1 = biological target: T14, hRIPK1 (Homo sapiens, UniProt Q13546); assay: KINOMEscan; type: binding
# T14 construct: purchased DiscoverX (KINOMEscan platform)
# hRSK1(Kin.Dom.2-C-term) = biological target: T15, hRSK1(Kin.Dom.2-C-term) (Homo sapiens, UniProt Q15418); assay: KINOMEscan; type: binding
# T15 construct: hRSK1(Kin.Dom.2-C-term); purchased DiscoverX (KINOMEscan platform)
# hSBK1 = biological target: T16, hSBK1 (Homo sapiens, UniProt Q52WX2); assay: KINOMEscan; type: binding
# T16 construct: purchased DiscoverX (KINOMEscan platform)
# T16 sequence (Q52WX2 whole entry): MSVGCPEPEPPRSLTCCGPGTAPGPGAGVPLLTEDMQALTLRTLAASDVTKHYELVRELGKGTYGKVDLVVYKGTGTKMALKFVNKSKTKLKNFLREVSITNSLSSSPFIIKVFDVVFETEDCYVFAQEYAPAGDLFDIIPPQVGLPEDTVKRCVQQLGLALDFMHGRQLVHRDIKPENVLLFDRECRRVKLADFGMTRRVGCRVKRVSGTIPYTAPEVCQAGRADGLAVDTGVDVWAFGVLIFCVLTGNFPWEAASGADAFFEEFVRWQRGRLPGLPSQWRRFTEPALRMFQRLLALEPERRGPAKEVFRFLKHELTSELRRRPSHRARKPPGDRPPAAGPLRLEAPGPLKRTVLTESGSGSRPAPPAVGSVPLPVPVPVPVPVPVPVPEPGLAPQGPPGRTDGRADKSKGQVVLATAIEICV
# hSRPK2 = biological target: T17, hSRPK2 (Homo sapiens, UniProt P78362); assay: KINOMEscan; type: binding
# T17 construct: purchased DiscoverX (KINOMEscan platform)
# hTBK1 = biological target: T18, hTBK1 (Homo sapiens, UniProt Q9UHD2); assay: KINOMEscan; type: binding
# T18 construct: purchased DiscoverX
# hWNK3 = biological target: T19, hWNK3 (Homo sapiens, UniProt Q9BYP7); assay: KINOMEscan; type: binding
# T19 construct: purchased DiscoverX
# hLXRβ = biological target: T20, hLXRβ (Homo sapiens, UniProt P55055); assay: Nuclear hormone receptor assay (Eurofins-CEREP); conditions: read-out: Relative IC50
# T20 construct: Eurofins-CEREP
# hADORA3 = biological target: T21, hADORA3 (Homo sapiens, UniProt P0DMS8); assay: β-arrestin Antagonist (Eurofins-CEREP); conditions: read-out: % Effect, Inhibition
# T21 sequence (P0DMS8 1-318): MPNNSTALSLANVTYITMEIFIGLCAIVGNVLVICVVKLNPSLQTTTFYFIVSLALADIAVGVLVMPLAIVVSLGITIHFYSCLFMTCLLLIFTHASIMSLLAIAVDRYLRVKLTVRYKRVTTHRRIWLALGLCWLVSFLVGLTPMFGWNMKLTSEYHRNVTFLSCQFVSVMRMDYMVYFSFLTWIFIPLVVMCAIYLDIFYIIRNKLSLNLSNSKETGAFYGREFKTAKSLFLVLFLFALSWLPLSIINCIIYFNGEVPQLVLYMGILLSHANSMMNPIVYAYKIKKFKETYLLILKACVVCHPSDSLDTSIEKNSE
# hADRβ1 = hADRβ1 (Homo sapiens, UniProt P08588); assay: β-arrestin Antagonist (Eurofins-CEREP); conditions: read-out: % Effect, Inhibition
# hM3 = hM3 (Homo sapiens, UniProt P20309); assay: β-arrestin Antagonist (Eurofins-CEREP); conditions: read-out: % Effect, Inhibition
compound,measurement,setting,value
"Cc1cn(CCN2CCN(c3ccccc3-c3cc(C#N)cc(C(=O)NCCCN4CCCC4)c3)CC2)c2ccccc12 [LLY-507, 3-cyano-5-{2-[4-[2-(3-methylindol-1-yl)ethyl]piperazin-1-yl]-phenyl}-N-[(3-pyrrolidin-1-yl)propyl]benzamide]",IC50,[1],600 nM
same,IC50,hCDKL2,> 20 µM
same,IC50,hCSK,> 20 µM
same,IC50,hDMPK,> 20 µM
same,IC50,[2],> 20 µM
same,IC50,"hEGFR(L747-T751del,Sins)",> 20 µM
same,IC50,"hEGFR(L858R,T790M)",> 20 µM
same,IC50,hFGFR3(G697C),> 20 µM
same,IC50,"hGCN2(Kin.Dom.2,S808G)",> 20 µM
same,IC50,hHPK1,> 20 µM
same,IC50,"hKIT(V559D,V654A)",> 20 µM
same,IC50,hLZK,> 20 µM
same,IC50,hMAP3K1,> 20 µM
same,IC50,hMARK2,> 20 µM
same,IC50,hPYK2,> 20 µM
same,IC50,hRIPK1,> 20 µM
same,IC50,hRSK1(Kin.Dom.2-C-term),> 20 µM
same,IC50,hSBK1,> 20 µM
same,IC50,hSRPK2,> 20 µM
same,IC50,hTBK1,> 20 µM
same,IC50,hWNK3,> 20 µM
same,IC50,hLXRβ,> 10 µM
same,inhibition at 10 µM,hADORA3,-38.3%
same,inhibition at 10 µM,hADRβ1,-6%
same,inhibition at 10 µM,hM3,-23.6%
